Experimental data reported in US20260365670A1, “EGFR INHIBITORS AND USES THEREOF” (DIZAL (JIANGSU) PHARMACEUTICAL CO., LTD., priority 2022, published 2026).
pIC50: −log10 of the molar value. Read-outs that look alike come from different tables or passages of the source.

Assays:
EGFR L858R/T790M = target: T1, EGFR L858R/T790M (Homo sapiens, UniProt P00533, L858R/T790M); assay: Inhibition of EGFR L858R/T790M biochemical enzymatic activity (HTRF); settings: 1 mM ATP; for pIC50: EGFR L858R/T790M, 1 h at room temperature, read-out: IC50 @L858R-T790M
T1 construct: purchased Carna Bio
Outline: (§1)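 Each enzyme was first added to plates holding compound. The reaction was then started with ATP (1 mM) and peptide substrate (1 μM). It was stopped after 1 h at room temperature with EDTA detection reagents and read at 615/665 nm to derive IC50s.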

EGFR wild type = target: T2, EGFR wild type (Homo sapiens, UniProt P00533); assay: Inhibition of EGFR wild type biochemical enzymatic activity (HTRF); settings: 1 mM ATP; for pIC50: EGFR wild type, 1 h at room temperature, read-out: IC50 @WT
T2 construct: purchased Carna Bio
Outline: as §1

[1] = system: Ba/F3 cells expressing EGFR mutations; assay: Cell proliferation assay, Ba/F3 cells expressing EGFR mutations (CellTiter-Glo, 72 hours); assay type: cell-based
Outline: (§2)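 Ba/F3 cells carrying EGFR mutants (5000/well) or PC-9 cells (500/well) in RPMI1640 were dosed with compound series after overnight attachment and grown 72 h. Viability read by CellTiter-Glo, with day-0 counts subtracted; GI50 from curve fits of % proliferation versus DMSO control.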

EGFR (d746-750 C797S) = target: T3, EGFR (d746-750 C797S) (Homo sapiens, UniProt P00533, C797S/DEL746-750); assay: Inhibition of EGFR (d746-750 C797S) biochemical enzymatic activity (HTRF); settings: 1 mM ATP; for pIC50: EGFR (d746-750 C797S), 1 h at room temperature, read-out: IC50 @Del19-C797S
T3 construct: purchased signalchem
Outline: as §1

PC-9 = assay: Cell proliferation assay, PC-9 cells (CellTiter-Glo, 72 hours); assay type: cell-based; settings: PC9 cells, read-out: GI50 PC9
Outline: as §2

EGFR L858R = target: T4, EGFR L858R (Homo sapiens, UniProt P00533, L858R); assay: Inhibition of EGFR L858R biochemical enzymatic activity (HTRF); settings: 1 mM ATP; for pIC50: 1 h at room temperature, read-out: IC50 @L858R
T4 construct: purchased Carna Bio
Outline: as §1

EGFR Exon19Del/T790M = target: T5, EGFR Exon19Del/T790M (Homo sapiens, UniProt P00533, DEL746-750/T790M); assay: Inhibition of EGFR Exon19Del/T790M biochemical enzymatic activity (HTRF); settings: 1 mM ATP; for pIC50: EGFR Exon19Del/T790M, 1 h at room temperature, read-out: IC50 @Del19-T790M
T5 construct: purchased Carna Bio
Outline: as §1

EGFR (C797S L858R) = target: T6, EGFR (C797S L858R) (Homo sapiens, UniProt P00533, C797S/L858R); assay: Inhibition of EGFR (C797S L858R) biochemical enzymatic activity (HTRF); settings: 1 mM ATP; for pIC50: EGFR (C797S L858R), 1 h at room temperature, read-out: IC50 @L858-C797S
T6 construct: purchased signalchem
Outline: as §1

EGFR[T790M/C797S/L858R] = target: T7, EGFR[T790M/C797S/L858R] (Homo sapiens, UniProt P00533, C797S/L858R/T790M); assay: Inhibition of EGFR[T790M/C797S/L858R] biochemical enzymatic activity (HTRF); settings: 1 mM ATP; for pIC50: EGFR[T790M/C797S/L858R], 1 h at room temperature, read-out: IC50 @T790M- C797S - L858R
T7 construct: purchased Carna Bio
Outline: as §1

[2] = target: T8, EGFR[T790M/C797S/d746-750] (Homo sapiens, UniProt P00533, C797S/DEL746-750/T790M); assay: Inhibition of EGFR[T790M/C797S/d746-750] biochemical enzymatic activity (HTRF); settings: for pIC50: EGFR[T790M/C797S/d746-750], 1 mM ATP, 1 h at room temperature, read-out: IC50 @T790M - C797S - Del19
T8 construct: purchased Carna Bio
Outline: as §1

A-431 = assay: Cell proliferation assay, A-431 cells (GI50, Table 6); assay type: cell-based; settings: Homo sapiens, A-431, A-431 cells
Experimental: [Worded in the source for another cell line; this cell line is reported under the same test.] Ba/F3 cells expressing EGFR mutations were seeded in 384-well plates at 5000 cells/well in RPMI1640 medium containing […]. PC-9 at 500 cells/well was seeded into 384-well plates in RPMI1640 medium with 10% FBS. After overnight incubation, the assay plates were dosed with compounds at a series of concentrations. Alongside dosing the assay plates, the day 0 plate was processed using CellTiter-Glo® Luminescent Cell Viability Assay (Promega) to measure the number of viable cells (G0). The assay plates were further incubated for 72 hours and the number of viable cells (G3) was measured. The percentage of proliferation was calculated as: […]=100×(G3 value of sample well−G0 value)/(G3 value of DMSO control−G0 value). The concentration of compound producing 50% proliferation inhibition (GI50) was further calculated in best-fit curves using XLFit software. N/A=not available.

EGFR Exon19Del = target: T9, EGFR Exon19Del (Homo sapiens, UniProt P00533, DEL746-750); assay: Inhibition of EGFR Exon19Del biochemical enzymatic activity (HTRF); settings: EGFR Exon19Del, 1 mM ATP, 1 h at room temperature, read-out: IC50 @Del19
T9 construct: purchased Carna Bio
Outline: as §1

[3] = Mus musculus, BaF3, 72 h, BaF3 cells, EGFR DEL19 - C797S, read-out: GI50 DEL19 - C797S/BaF3
[4] = Mus musculus, BaF3, 72 h, BaF3 cells, EGFR DEL19 - T790-C797S, read-out: GI50 DEL19 - T790-C797S/BaF3
[5] = Mus musculus, BaF3, 72 h, BaF3 cells, EGFR L858R - C797S, read-out: GI50 L858R - C797S/BaF3
[6] = Mus musculus, BaF3, 72 h, BaF3 cells, EGFR L858R - T790-C797S, read-out: GI50 L858R - T790-C797S/BaF3
[7] = Mus musculus, BaF3, 72 h, BaF3 cells, EGFR L858R - T790M, read-out: GI50 L858R - T790M/BaF3
[8] = Mus musculus, BaF3, 72 h, BaF3 cells, EGFR L858R, read-out: GI50 L858R/BaF3
[9] = Mus musculus, BaF3, 72 h, EGFR DEL19 - T790M, read-out: GI50 DEL19 - T790M

T4 sequence (P00533 25-1210 L858R): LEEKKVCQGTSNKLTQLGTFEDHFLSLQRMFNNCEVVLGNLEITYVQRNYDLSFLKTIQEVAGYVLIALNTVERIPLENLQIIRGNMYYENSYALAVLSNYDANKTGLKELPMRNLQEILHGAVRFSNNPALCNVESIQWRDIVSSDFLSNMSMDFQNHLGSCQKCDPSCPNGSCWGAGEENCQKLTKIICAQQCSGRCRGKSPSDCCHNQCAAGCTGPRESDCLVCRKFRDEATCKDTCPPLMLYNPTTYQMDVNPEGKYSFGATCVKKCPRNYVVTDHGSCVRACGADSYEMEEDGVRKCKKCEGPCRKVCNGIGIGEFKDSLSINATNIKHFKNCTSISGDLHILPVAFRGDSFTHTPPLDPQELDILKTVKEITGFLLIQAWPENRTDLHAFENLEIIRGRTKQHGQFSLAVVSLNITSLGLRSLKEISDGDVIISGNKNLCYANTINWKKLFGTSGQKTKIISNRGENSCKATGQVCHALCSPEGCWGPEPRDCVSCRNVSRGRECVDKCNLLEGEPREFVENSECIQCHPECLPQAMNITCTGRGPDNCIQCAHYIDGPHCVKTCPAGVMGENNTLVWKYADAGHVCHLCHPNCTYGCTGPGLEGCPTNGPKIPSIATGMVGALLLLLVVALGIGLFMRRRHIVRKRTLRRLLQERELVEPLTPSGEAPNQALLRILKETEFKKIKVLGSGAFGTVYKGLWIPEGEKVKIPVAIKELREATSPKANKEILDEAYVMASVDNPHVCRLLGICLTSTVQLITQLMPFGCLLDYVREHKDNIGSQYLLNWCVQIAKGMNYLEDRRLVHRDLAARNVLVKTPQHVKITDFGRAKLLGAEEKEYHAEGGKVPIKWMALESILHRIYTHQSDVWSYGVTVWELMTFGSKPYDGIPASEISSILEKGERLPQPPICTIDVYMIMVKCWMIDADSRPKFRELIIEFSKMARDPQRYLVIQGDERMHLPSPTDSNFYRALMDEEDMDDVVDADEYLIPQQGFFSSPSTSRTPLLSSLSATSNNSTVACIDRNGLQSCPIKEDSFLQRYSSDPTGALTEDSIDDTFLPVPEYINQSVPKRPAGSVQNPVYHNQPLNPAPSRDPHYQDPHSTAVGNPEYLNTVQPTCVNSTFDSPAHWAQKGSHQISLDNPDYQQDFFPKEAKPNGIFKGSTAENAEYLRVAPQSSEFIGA
T6 sequence (P00533 25-1210 C797S/L858R): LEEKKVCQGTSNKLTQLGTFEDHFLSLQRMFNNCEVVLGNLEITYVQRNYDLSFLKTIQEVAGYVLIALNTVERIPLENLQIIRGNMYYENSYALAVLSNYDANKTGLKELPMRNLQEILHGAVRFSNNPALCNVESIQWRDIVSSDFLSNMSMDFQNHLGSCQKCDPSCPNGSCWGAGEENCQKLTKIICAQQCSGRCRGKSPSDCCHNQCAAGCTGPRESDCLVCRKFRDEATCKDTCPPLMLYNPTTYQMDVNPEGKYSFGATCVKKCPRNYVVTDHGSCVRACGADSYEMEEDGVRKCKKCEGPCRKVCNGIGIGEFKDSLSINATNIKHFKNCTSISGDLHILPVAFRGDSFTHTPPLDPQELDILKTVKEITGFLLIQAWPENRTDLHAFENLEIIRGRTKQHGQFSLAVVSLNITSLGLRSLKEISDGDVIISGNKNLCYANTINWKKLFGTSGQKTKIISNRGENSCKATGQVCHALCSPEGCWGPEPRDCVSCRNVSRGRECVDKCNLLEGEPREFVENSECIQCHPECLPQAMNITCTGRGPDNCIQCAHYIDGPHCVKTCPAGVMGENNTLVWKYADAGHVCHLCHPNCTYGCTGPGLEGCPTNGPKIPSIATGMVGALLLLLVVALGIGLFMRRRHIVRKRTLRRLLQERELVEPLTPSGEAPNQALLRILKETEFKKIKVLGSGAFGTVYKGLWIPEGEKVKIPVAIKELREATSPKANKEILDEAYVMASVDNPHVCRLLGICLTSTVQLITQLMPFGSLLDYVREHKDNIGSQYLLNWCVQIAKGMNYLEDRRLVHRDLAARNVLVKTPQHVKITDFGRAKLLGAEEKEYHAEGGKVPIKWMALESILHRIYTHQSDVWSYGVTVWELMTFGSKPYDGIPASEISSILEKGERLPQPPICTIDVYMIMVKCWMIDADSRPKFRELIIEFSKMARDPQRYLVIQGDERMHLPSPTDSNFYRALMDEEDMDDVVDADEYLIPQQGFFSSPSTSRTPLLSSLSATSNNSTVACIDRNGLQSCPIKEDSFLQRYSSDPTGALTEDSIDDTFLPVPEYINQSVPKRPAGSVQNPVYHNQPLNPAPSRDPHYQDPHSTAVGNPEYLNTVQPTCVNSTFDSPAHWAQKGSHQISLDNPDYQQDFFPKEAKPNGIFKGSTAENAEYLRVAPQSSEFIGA
T3 sequence (P00533 with tags, fused parts or gaps DEL746-750/C797S limits assumed): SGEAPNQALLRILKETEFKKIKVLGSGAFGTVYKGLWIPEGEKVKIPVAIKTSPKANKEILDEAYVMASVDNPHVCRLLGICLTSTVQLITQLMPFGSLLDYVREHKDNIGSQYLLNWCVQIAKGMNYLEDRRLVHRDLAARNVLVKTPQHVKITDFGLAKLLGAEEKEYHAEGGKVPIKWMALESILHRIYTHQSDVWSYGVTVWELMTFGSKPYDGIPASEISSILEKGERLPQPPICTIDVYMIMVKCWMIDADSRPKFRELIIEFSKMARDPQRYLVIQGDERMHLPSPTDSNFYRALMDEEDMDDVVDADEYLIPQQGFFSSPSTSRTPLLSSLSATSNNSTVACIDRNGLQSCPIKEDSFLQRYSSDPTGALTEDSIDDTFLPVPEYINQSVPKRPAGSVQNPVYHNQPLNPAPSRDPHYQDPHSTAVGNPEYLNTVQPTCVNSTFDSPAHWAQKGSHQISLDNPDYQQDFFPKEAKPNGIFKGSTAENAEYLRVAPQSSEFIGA
T7 sequence (P00533 25-1210 T790M/C797S/L858R): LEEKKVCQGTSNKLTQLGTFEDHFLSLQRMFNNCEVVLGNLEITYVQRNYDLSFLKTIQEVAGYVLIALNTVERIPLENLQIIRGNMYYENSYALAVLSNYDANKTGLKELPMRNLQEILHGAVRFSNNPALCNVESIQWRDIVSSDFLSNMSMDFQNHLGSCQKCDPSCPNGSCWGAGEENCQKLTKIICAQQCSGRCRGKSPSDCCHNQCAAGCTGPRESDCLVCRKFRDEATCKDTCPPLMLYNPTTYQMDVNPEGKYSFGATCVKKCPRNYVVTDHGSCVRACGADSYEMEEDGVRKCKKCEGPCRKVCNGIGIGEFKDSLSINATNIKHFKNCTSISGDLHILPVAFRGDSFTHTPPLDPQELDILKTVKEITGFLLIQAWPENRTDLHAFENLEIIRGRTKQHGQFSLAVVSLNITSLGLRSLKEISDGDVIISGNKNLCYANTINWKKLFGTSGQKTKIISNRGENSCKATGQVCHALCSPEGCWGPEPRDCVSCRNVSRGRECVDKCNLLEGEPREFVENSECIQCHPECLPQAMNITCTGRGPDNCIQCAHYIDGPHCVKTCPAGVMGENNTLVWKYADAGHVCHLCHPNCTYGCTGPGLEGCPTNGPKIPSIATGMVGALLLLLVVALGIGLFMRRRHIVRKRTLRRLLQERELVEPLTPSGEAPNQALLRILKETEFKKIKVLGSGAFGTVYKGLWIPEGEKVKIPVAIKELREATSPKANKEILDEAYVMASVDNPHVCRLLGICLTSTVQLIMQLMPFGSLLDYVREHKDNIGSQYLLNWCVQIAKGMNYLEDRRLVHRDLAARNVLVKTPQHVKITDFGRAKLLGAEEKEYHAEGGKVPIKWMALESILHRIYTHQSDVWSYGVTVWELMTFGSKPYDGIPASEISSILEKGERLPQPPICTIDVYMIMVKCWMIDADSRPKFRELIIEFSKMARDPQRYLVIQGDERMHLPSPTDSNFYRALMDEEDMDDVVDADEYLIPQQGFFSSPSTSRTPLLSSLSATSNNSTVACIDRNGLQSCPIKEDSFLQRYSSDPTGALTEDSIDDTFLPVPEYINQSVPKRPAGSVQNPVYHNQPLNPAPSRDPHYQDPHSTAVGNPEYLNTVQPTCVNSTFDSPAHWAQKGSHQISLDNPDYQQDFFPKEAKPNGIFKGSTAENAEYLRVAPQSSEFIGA
T8 sequence (P00533 with tags, fused parts or gaps DEL746-750/T790M/C797S limits assumed): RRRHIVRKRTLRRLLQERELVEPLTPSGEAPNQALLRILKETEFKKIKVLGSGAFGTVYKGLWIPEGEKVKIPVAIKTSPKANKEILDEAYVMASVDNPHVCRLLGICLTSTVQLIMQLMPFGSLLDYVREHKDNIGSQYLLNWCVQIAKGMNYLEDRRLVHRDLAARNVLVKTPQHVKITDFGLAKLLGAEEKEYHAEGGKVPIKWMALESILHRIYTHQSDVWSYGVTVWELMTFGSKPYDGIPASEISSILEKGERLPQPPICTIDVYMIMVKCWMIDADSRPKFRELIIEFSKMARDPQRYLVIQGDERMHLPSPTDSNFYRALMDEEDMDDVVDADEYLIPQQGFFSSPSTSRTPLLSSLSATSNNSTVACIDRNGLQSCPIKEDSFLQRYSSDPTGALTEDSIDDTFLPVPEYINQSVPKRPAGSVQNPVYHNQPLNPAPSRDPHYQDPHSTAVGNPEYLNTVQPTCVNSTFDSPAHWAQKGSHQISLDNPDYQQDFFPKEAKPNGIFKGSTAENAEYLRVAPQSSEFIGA

`Cc1cc2cc(n1)-c1cnn(C)c1OCCN1CC3CCC(C3)(C1)n1c(nc3ccccc31)NC2=O` (single isomer, unassigned) [Example B8A, 15,21-dimethyl-23-oxa-2,9,11,16,20,21,26-heptaazaheptacyclo[24.4.1.1^{1,28}.1^{13,17}.0^{2,10}.0^{3,8}.0^{18,22}]tritriaconta-3,5,7,9,13,15,17(33),18(22),19-nonaen-12-one] was tested, and the pIC50 (EGFR L858R/T790M) was less than 5.30, the pIC50 (EGFR wild type) was less than 5.30 and the GI50 [1, 3] was 620 nM. It also gave a GI50 [1, 4] of 251 nM, a GI50 [1, 5] of 2120 nM and a GI50 [1, 6] of 290 nM. For the same compound, the GI50 [1, 7] was 1170 nM, the GI50 [1, 8] was 3560 nM and the GI50 [1, 9] was 298 nM. The pIC50 (EGFR (d746-750 C797S)) was 6.18, the GI50 (PC-9; Homo sapiens, PC-9, 72 h) was 2850 nM and the pIC50 (EGFR L858R) was less than 5.30. The pIC50 (EGFR Exon19Del/T790M) was 5.40, the pIC50 (EGFR (C797S L858R)) was less than 5.30 and the pIC50 (EGFR[T790M/C797S/L858R]) was less than 5.30. The pIC50 [2] was 5.40, the GI50 (A-431) was 6390 nM and the pIC50 (EGFR Exon19Del) was 6.14.

`Cc1cc2cc(n1)-c1cnn(C)c1OCCN1CC3CCC(C3)(C1)n1c(nc3ccc(N4CCC(N5CCOCC5)C4)cc31)NC2=O` (single isomer, unassigned) [Example B44B] was tested, and the pIC50 (EGFR L858R/T790M) was 7.89, the pIC50 (EGFR wild type) was less than 5.30 and the GI50 ([1]; BaF3 cells, EGFR DEL19 - C797S, read-out: GI50 DEL19 - C797S/BaF3) was 2 nM. The GI50 ([1]; BaF3 cells, EGFR DEL19 - T790-C797S, read-out: GI50 DEL19 - T790-C797S/BaF3) was 2 nM, the GI50 ([1]; BaF3 cells, EGFR L858R - C797S, read-out: GI50 L858R - C797S/BaF3) was 12 nM and the GI50 ([1]; BaF3 cells, EGFR L858R - T790-C797S, read-out: GI50 L858R - T790-C797S/BaF3) was 2 nM. For the same compound, the GI50 ([1]; BaF3 cells, EGFR L858R - T790M, read-out: GI50 L858R - T790M/BaF3) was 2 nM, the GI50 ([1]; BaF3 cells, EGFR L858R, read-out: GI50 L858R/BaF3) was 15 nM and the GI50 ([1]; EGFR DEL19 - T790M, read-out: GI50 DEL19 - T790M) was 2 nM. It also gave a pIC50 (EGFR (d746-750 C797S)) of 8.09, a GI50 (PC-9) of 13 nM and a pIC50 (EGFR L858R) of 6.77. For the same compound, the pIC50 (EGFR Exon19Del/T790M) was 8.19, the pIC50 (EGFR (C797S L858R)) was 7.30 and the pIC50 (EGFR[T790M/C797S/L858R]) was 8.31. For the same compound, the pIC50 [2] was 8.37, the GI50 (A-431) was 929 nM and the pIC50 (EGFR Exon19Del) was 7.74.

For `CN1CCN(c2cc3c(cc2F)nc2n3C34CCC(CC3)CN(CCOc3c(cnn3C)-c3cc(cn(C)c3=O)C(=O)N2)C4)CC1` [Example A115, 6-fluoro-15,21-dimethyl-5-(4-methylpiperazin-1-yl)-23-oxa-2,9,11,15,20,21,26-heptaazaheptacyclo[26.2.2.1^{1,26}.1^{13,17}.0^{2,10}.0^{3,8}.0^{18,22}]tetratriaconta-3,5,7,9,13,17(34),18(22),19-octaene-12,16-dione], the IC50 (EGFR L858R/T790M; EGFR L858R-T790M, 1 h, room temperature, read-out: IC50 (nM) @L858R-T790M) was 325 nM, the IC50 (EGFR wild type; EGFR WT, 1 h, room temperature, read-out: IC50 (nM) @WT) was greater than 5000 nM and the GI50 [1, 3] was 7.6 nM. For the same compound, the GI50 [1, 4] was 52 nM, the GI50 [1, 5] was 61 nM and the GI50 [1, 6] was 68 nM. The GI50 [1, 7] was 133 nM, the GI50 [1, 8] was 20 nM and the GI50 [1, 9] was 18 nM. It also gave an IC50 (EGFR (d746-750 C797S); EGFR Del19-C797S, 1 h, room temperature, read-out: IC50 (nM) @Del19-C797S) of 9.2 nM, a GI50 (PC-9; Homo sapiens, PC-9, 72 h) of 94 nM and an IC50 (EGFR L858R; 1 h, room temperature, read-out: IC50 (nM) @L858R) of 233 nM. The IC50 (EGFR Exon19Del/T790M; EGFR Del19-T790M, 1 h, room temperature, read-out: IC50 (nM) @Del19-T790M) was 12 nM, the IC50 (EGFR (C797S L858R); EGFR L858-C797S, 1 h, room temperature, read-out: IC50 (nM) @L858-C797S) was 112 nM and the IC50 (EGFR[T790M/C797S/L858R]; EGFR T790M-C797S-L858R, 1 h, room temperature, read-out: IC50 (nM) @T790M- C797S - L858R) was 50 nM. The IC50 ([2]; EGFR T790M-C797S-Del19, 1 mM ATP, 1 h, room temperature, read-out: IC50 (nM) @T790M - C797S - Del19) was 6.6 nM and the GI50 (A-431) was 3040 nM.
